In patent US20190151210A1, “METHOD AND COMPOSITION FOR TREATING SKIN CONDITIONS” (L'OREAL, priority 2016, published 2019):
Several values for one entry are separate records, joined by “and”; a condition that tells them apart may be missing. Identical values can stand only once.

Test: solubility of active ingredients in base oil composition
Format: physicochemical
Settings: for Loading (wt %), soluble in base oil composition: loading not marked with *
Description: The booster compositions described above include the active ingredients noted specifically for the categorical skin condition (e.g., skin brightness, skin wrinkles, visibility of pores, skin texture, and/or skin redness). In addition, the compositions cosolubilize to permit easy dispersion of the booster composition into the base oil composition. In addition to easy dispersion, the system according to the present disclosure ensures rapid homogeneity of the final products after combination of booster and base components by the consumer. In each of the booster compositions, at least one of the ingredients in the base oil composition are included in the booster compositions. For example, in one embodiment, squalane is included in each of the booster compositions. In one particularly advantageous embodiment, greater than about 20% or greater than about 25% or greater than about 30% or greater than about 35%, by weight of total composition squalane is included in each of the booster compositions. Visual assessment may be conducted to ensure cosolubility. For example, cosolubility may be determined by visual determination of incompatibility, immicible components, precipitates or other visual indicators indicating a lack of cosolubility.

Row | Loading (wt %), soluble in base oil composition | Loading (wt %), insoluble in base oil composition (loading marked * = Insoluble) | Compound
1 | 40% wt % and 50% wt % and 60% wt % |  | CCCCCCCCC(CCCCCC)C(=O)OC[C@H](OC(=O)C(CCCCCC)CCCCCCCC)[C@H]1OC(=O)C(OC(=O)C(CCCCCC)CCCCCCCC)=C1OC(=O)C(CCCCCC)CCCCCCCC (stereo partly shown) [Ascorbyl Tetraisopalmitate]
2 | 5% wt % and 10% wt % and 15% wt % |  | CC(c1ccccc1)c1ccc(O)cc1O (stereo not shown) [Phenylethyl Resorcinol]
3 | 3% wt % | 5%* wt % and 10%* wt % and 15%* wt % | O=C(O)c1ccccc1O [Salicylic Acid]
